# Results published in patent publication US20230091047A1 (priority 2019, published 2023).
# Like-named read-outs stand apart in the source and are kept apart here.
# How the values were obtained:
# [1] = tested on: HBV (HepG2.117 cell line, inducibly HBV producing); experiment: Anti-HBV activity: intracellular HBV DNA by real-time PCR in HepG2.117 cells after 3 days of treatment; assay type: cell-based, hepatitis B virus
# Experimental: The anti HBV activity was measured using the HepG2.117 cell line, a stable, inducibly HBV producing cell line, which replicates HBV in the absence of doxycycline (Tet-off system). The HepG2 cell line is available from ATCCR under number HB-8065. Transfection of the HepG2 cell line can be as described in Sun and Nassal 2006 Journal of Hepatology 45 (2006) 636-645 “Stable HepG2- and Huh7-based human hepatoma cell lines for efficient regulated expression of infectious hepatitis B virus”.
# For the antiviral assay, HBV replication was induced, followed by a treatment with serially diluted compound in 96-well plates. After 3 days of treatment, the antiviral activity was determined by quantification of intracellular HBV DNA using real-time PCR and an HBV specific primer set and probe.
# [2] = in vitro; assay type: cell-based; conditions: human, HepG2 or HepG2.117 cells, ATPlite, mean value
# Experimental: Cytotoxicity of the compounds was tested using HepG2 or HepG2.117 cells, incubated for 3 or 4 days in the presence of compounds. The viability of the cells was assessed using the PERKIN ELMER ATPlite Luminescence Assay System.”
# [3] = Hepatitis B virus, HepG2.117, 72 h, HepG2.117 cells, 3 days of treatment, intracellular HBV DNA by real-time PCR; mean value; read-out: EC50 (μM, mean value)
# [4] = 3-days incubation (unmarked values)
# [5] = Hepatitis B virus, HepG2.117, 72 h, HepG2.117 cells, intracellular HBV DNA by real-time PCR, 3 days of treatment, mean value; read-out: EC50 (μM, mean value)
# [6] = 3-days incubation (not marked with *)
Compound,"EC50 [1, 3] [µM]","CC50 at 3 days [2, 4] [µM]","EC50 ([1]; HepG2.117 cells, 3 days of treatment, intracellular HBV DNA by real-time PCR; mean value; read-out: EC50 (μM, mean value)) [µM]","EC50 [1, 5] [µM]","CC50 at 3 days [2, 6] [µM]"
"CNC(=O)c1ccc(-n2c(N[C@H](CCO)C3CC3)nc3c(c2=O)C[C@@H](C)N(C(=O)c2ccc(Cl)c(Cl)c2)C3)cc1 (single isomer, unassigned) [Compound C283, 4-[(6R)-2-{[(1*R)-1-cyclopropyl-3-hydroxypropyl]amino}-7-(3,4-dichlorobenzoyl)-6-methyl-4-oxo-5,6,7,8-tetrahydropyrido[3,4-d]pyrimidin-3(4H)-yl]-N-methylbenzamide]",5.52,> 50,,,
"CNC(=O)c1ccc(-n2c(N[C@H](C)c3cccnc3OC)nc3c(c2=O)C[C@@H](C)N(C(=O)c2ccc(Cl)c(Cl)c2)C3)cc1 (single isomer, unassigned) [Compound C285, 4-[(6R)-7-(3,4-dichlorobenzoyl)-2-{[(1*R)-1-(2-methoxypyridin-3-yl)ethyl]amino}-6-methyl-4-oxo-5,6,7,8-tetrahydropyrido[3,4-d]pyrimidin-3(4H)-yl]-N-methylbenzamide]",0.37,27.6,,,
"CNC(=O)c1ccc(-n2c(N3CC[C@H]3C)nc3c(c2=O)C[C@@H](C)N(C(=O)c2ccc(Cl)c(Cl)c2)C3)cc1 (single isomer, unassigned) [Compound C311, 4-[(6R)-7-(3,4-dichlorobenzoyl)-6-methyl-2-[(2*R)-2-methylazetidin-1-yl]-4-oxo-5,6,7,8-tetrahydropyrido[3,4-d]pyrimidin-3(4H)-yl]-N-methylbenzamide]",0.09,> 50,,,
"CNC(=O)c1ccc(-n2c(N3CC[C@@H]3C)nc3c(c2=O)C[C@@H](C)N(C(=O)c2ccc(Cl)c(Cl)c2)C3)cc1 (single isomer, unassigned) [Compound C312, 4-[(6R)-7-(3,4-dichlorobenzoyl)-6-methyl-2-[(2*S)-2-methylazetidin-1-yl]-4-oxo-5,6,7,8-tetrahydropyrido[3,4-d]pyrimidin-3(4H)-yl]-N-methylbenzamide]",0.26,> 50,,,
"CNC(=O)c1ccc(-n2c(NC(C)C)nc3c(c2=O)C[C@@H](C)N(C(=O)c2ccc(Cl)c(Cl)c2)C3)c(OC)c1 (single isomer, unassigned) [Compound C314a]",,> 50,0.1,,
"CNC(=O)c1ccc(-n2c(N[C@@H]3CCCC3(C)C)nc3c(c2=O)C[C@@H](C)N(C(=O)c2ccc(Cl)c(Cl)c2)C3)cc1 (single isomer, unassigned) [Compound C318, 4-[(6R)-7-(3,4-dichlorobenzoyl)-2-{[(1*R)-2,2-dimethylcyclopentyl]amino}-6-methyl-4-oxo-5,6,7,8-tetrahydropyrido[3,4-d]pyrimidin-3(4H)-yl]-N-methylbenzamide]",0.68,23.2,,,
"CNC(=O)c1ccc(-n2c(N[C@H]3CCCC3(C)C)nc3c(c2=O)C[C@@H](C)N(C(=O)c2ccc(Cl)c(Cl)c2)C3)cc1 (single isomer, unassigned) [Compound C319, 4-[(6R)-7-(3,4-dichlorobenzoyl)-2-{[(1*S)-2,2-dimethylcyclopentyl]amino}-6-methyl-4-oxo-5,6,7,8-tetrahydropyrido[3,4-d]pyrimidin-3(4H)-yl]-N-methylbenzamide]",0.21,23.5,,,
"CNC(=O)c1ccc(-n2c(N[C@H](C)c3ccccn3)nc3c(c2=O)C[C@@H](C)N(C(=O)c2ccc(Cl)c(Cl)c2)C3)cc1 (single isomer, unassigned) [Compound C320, 4-[(6R)-7-(3,4-dichlorobenzoyl)-6-methyl-4-oxo-2-{[(1*R)-1-(pyridin-2-yl)ethyl]amino}-5,6,7,8-tetrahydropyrido[3,4-d]pyrimidin-3(4H)-yl]-N-methylbenzamide]",0.27,> 50,,,
"CNC(=O)c1ccc(-n2c(N[C@@H](C)c3ccccn3)nc3c(c2=O)C[C@@H](C)N(C(=O)c2ccc(Cl)c(Cl)c2)C3)cc1 (single isomer, unassigned) [Compound C321, 4-[(6R)-7-(3,4-dichlorobenzoyl)-6-methyl-4-oxo-2-{[(1*S)-1-(pyridin-2-yl)ethyl]amino}-5,6,7,8-tetrahydropyrido[3,4-d]pyrimidin-3(4H)-yl]-N-methylbenzamide]",0.94,> 50,,,
"CNC(=O)c1ccc(-n2c(N[C@@H](c3ccccc3)C3CC3)nc3c(c2=O)C[C@@H](C)N(C(=O)c2ccc(Cl)c(Cl)c2)C3)cc1 (single isomer, unassigned) [Compound C342, 4-[(6R)-2-{[(*R)-cycopropyl(phenyl)methyl]amino}-7-(3,4-dichlorobenzoyl)-6-methyl-4-oxo-5,6,7,8-tetrahydropyrido[3,4-d]pyrimidin-3(4H)-yl]-N-methylbenzamide]",0.37,16,,,
"CNC(=O)c1ccc(-n2c(N[C@H](c3ccccc3)C3CC3)nc3c(c2=O)C[C@@H](C)N(C(=O)c2ccc(Cl)c(Cl)c2)C3)cc1 (single isomer, unassigned) [Compound C343, 4-[(6R)-2-{[(*S)-cycopropyl(phenyl)methyl]amino}-7-(3,4-dichlorobenzoyl)-6-methyl-4-oxo-5,6,7,8-tetrahydropyrido[3,4-d]pyrimidin-3(4H)-yl]-N-methylbenzamide]",0.19,13.7,,,
"CNC(=O)c1ccc(-n2c(N[C@@H]3CCC34CCC4)nc3c(c2=O)C[C@@H](C)N(C(=O)c2ccc(Cl)c(Cl)c2)C3)cc1 (single isomer, unassigned) [Compound C346a]",,,,0.94,27.6
"CNC(=O)c1ccc(-n2c(N[C@H]3CCC34CCC4)nc3c(c2=O)C[C@@H](C)N(C(=O)c2ccc(Cl)c(Cl)c2)C3)cc1 (single isomer, unassigned) [Compound C346b]",,,,0.22,> 50
"CNC(=O)c1ccc(-n2c(N[C@H](C)c3ccc(OC)cc3)nc3c(c2=O)C[C@@H](C)N(C(=O)c2ccc(Cl)c(Cl)c2)C3)cc1 (single isomer, unassigned) [Compound C347a]",,,,0.1,35.1
"CNC(=O)c1ccc(-n2c(N[C@@H](C)c3ccc(OC)cc3)nc3c(c2=O)C[C@@H](C)N(C(=O)c2ccc(Cl)c(Cl)c2)C3)cc1 (single isomer, unassigned) [Compound C347b]",,,,0.27,> 50
"CNC(=O)c1ccc(-n2c(N3CC[C@@H]3c3ccccc3)nc3c(c2=O)C[C@@H](C)N(C(=O)c2ccc(Cl)c(Cl)c2)C3)cc1 (single isomer, unassigned) [Compound C348, 4-[(6R)-7-(3,4-dichlorobenzoyl)-6-methyl-4-oxo-2-[(2*R)-2-phenylazetidin-1-yl]-5,6,7,8-tetrahydropyrido[3,4-d]pyrimidin-3(4H)-yl]-N-methylbenzamide]",0.2,31.2,,,
"CNC(=O)c1ccc(-n2c(N3CC[C@H]3c3ccccc3)nc3c(c2=O)C[C@@H](C)N(C(=O)c2ccc(Cl)c(Cl)c2)C3)cc1 (single isomer, unassigned) [Compound C349, 4-[(6R)-7-(3,4-dichlorobenzoyl)-6-methyl-4-oxo-2-[(2*S)-2-phenylazetidin-1-yl]-5,6,7,8-tetrahydropyrido[3,4-d]pyrimidin-3(4H)-yl]-N-methylbenzamide]",0.32,31.7,,,
"C#C[C@H]1CCCN1c1nc2c(c(=O)n1-c1ccc(C(=O)NC)cc1)C[C@@H](C)N(C(=O)c1ccc(Cl)c(Cl)c1)C2 (single isomer, unassigned) [Compound C350, 4-[(6R)-7-(3,4-dichlorobenzoyl)-2-[(2*R)-2-ethynylpyrrolidin-1-yl]-6-methyl-4-oxo-5,6,7,8-tetrahydropyrido[3,4-d]pyrimidin-3(4H)-yl]-N-methylbenzamide]",0.23,> 50,,,
"C#C[C@@H]1CCCN1c1nc2c(c(=O)n1-c1ccc(C(=O)NC)cc1)C[C@@H](C)N(C(=O)c1ccc(Cl)c(Cl)c1)C2 (single isomer, unassigned) [Compound C351, 4-[(6R)-7-(3,4-dichlorobenzoyl)-2-[(2*S)-2-ethynylpyrrolidin-1-yl]-6-methyl-4-oxo-5,6,7,8-tetrahydropyrido[3,4-d]pyrimidin-3(4H)-yl]-N-methylbenzamide]",0.2,> 50,,,
"CNC(=O)c1ccc(-n2c(N3CCC[C@@H]3C3CC3)nc3c(c2=O)C[C@@H](C)N(C(=O)c2ccc(Cl)c(Cl)c2)C3)cc1 (single isomer, unassigned) [Compound C352, 4-[(6R)-2-[(2*R)-2-cyclopropylpyrrolidin-1-yl]-7-(3,4-dichlorobenzoyl)-6-methyl-4-oxo-5,6,7,8-tetrahydropyrido[3,4-d]pyrimidin-3(4H)-yl]-N-methylbenzamide]",0.29,27.5,,,
"CNC(=O)c1ccc(-n2c(N3CCC[C@H]3C3CC3)nc3c(c2=O)C[C@@H](C)N(C(=O)c2ccc(Cl)c(Cl)c2)C3)cc1 (single isomer, unassigned) [Compound C353, 4-[(6R)-2-[(2*S)-2-cyclopropylpyrrolidin-1-yl]-7-(3,4-dichlorobenzoyl)-6-methyl-4-oxo-5,6,7,8-tetrahydropyrido[3,4-d]pyrimidin-3(4H)-yl]-N-methylbenzamide]",0.11,19.5,,,
